According to ChEMBL document CHEMBL1156829 (Proc Natl Acad Sci U S A, 2008):

Assays:
Plasmodium falciparum [1] = experiment: NOVARTIS: Inhibition of Plasmodium falciparum 3D7 (drug-susceptible) proliferation in erythrocyte-based infection assay; type: functional, organism-based; conditions: Plasmodium falciparum, 3D7
[2] = NOVARTIS: Cytotoxicity against human hepatocellular carcinoma cell line (Huh7); type: toxicity, cell-based, Huh-7; conditions: Huh7 cells (hepatocellular carcinoma cell line)
Plasmodium falciparum [3] = experiment: NOVARTIS: Inhibition of Plasmodium falciparum W2 (drug-resistant) proliferation in erythrocyte-based infection assay; type: functional, organism-based; conditions: Plasmodium falciparum, W2; read-out: EC50

| SMILES | EC50 (Plasmodium falciparum [1]) | CC50 [2] | EC50 (Plasmodium falciparum [3]) |
| --- | --- | --- | --- |
| CCOc1ccc(-c2nc(NC(=O)Cc3cccc(OC)c3)sc2C)cc1 | 273 nM | > 10000 nM | 417 nM |
| CN(C)c1ccc(-c2nc(-c3ccc(-c4[nH]c(-c5ccc(N(C)C)cc5)nc4-c4ccccc4)cc3)c(-c3ccccc3)[nH]2)cc1 | 7820 nM | 68400 nM | 2910 nM |
| Oc1cccc(C=Nc2ccccc2)c1O | 360 nM | > 10300 nM | 435 nM |
| c1ccc2cc3c(N4CCN(CCCN5CCN(c6ccnc7cc8ccccc8cc67)CC5)CC4)ccnc3cc2c1 | 79.4 nM | > 10000 nM | 417 nM |
| Brc1ccc(Nc2nc3ccccc3nc2Nc2ccc(Br)cc2)cc1 | 809 nM | 20600 nM | 854 nM |
| CCOC(=O)CSC1=Nc2ccccc2C2=NC(Cc3ccccc3)C(=O)N12 (configuration not stated) | > 1250 nM | > 10000 nM | 407 nM |
| O=C1C(=O)N(Cc2cccc3ccccc23)c2ccc(Br)cc21 | > 12500 nM | > 100000 nM | 4230 nM |
| O=C(NCc1ccccc1)NC1CC2CCCC(C1)N2Cc1ccccc1 (configuration not stated) | 879 nM | > 10000 nM | 423 nM |
| CC(=NNC(=O)c1ccc([N+](=O)[O-])cc1)c1cccc([N+](=O)[O-])c1 | > 1410 nM | > 10000 nM | > 406 nM |
| CCn1c(SCC(=O)Nc2ccc(OC)cc2)nc2ccsc2c1=O | > 1250 nM | > 11700 nM | 475 nM |
| Cc1ccc(C)c(NC2=C(c3ccc(C(F)(F)F)cc3)C(=O)c3ccccc32)c1 | 1850 nM | > 100000 nM | 4220 nM |
| CCCCN(C)CCCNC(=O)c1ccc(Cl)c(NC(=O)Nc2ccc(Cl)c(Cl)c2)c1 | 233 nM | 20300 nM | 822 nM |
| CCN1/C(=C/C(=C/c2sc3ccccc3[n+]2CC)NC)Sc2ccccc21 | > 1250 nM | > 10000 nM | > 422 nM |
| O=C(NC1CCN(Cc2ccccc2)CC1)[C@@H](c1ccccc1)N1Cc2ccccc2C1=O | > 12500 nM | > 100000 nM | 4210 nM |
| Oc1ccc(-c2cncc(NCc3ccc(Cl)cc3)c2)cc1 | 439 nM | > 10000 nM | 405 nM |
| CC(=O)OCN1C(=O)N(COC(C)=O)C2C1N(COC(C)=O)C(=O)N2COC(C)=O (configuration not stated) | > 11600 nM | > 100000 nM | 4220 nM |
| FC(F)(F)c1cccc(-c2nc3c(s2)CN(C2CCCC2)CC3)c1 | 5370 nM | 73000 nM | 2950 nM |
| Cc1ccc(N=C2S/C(=C\c3ccccc3)C(=O)N2c2ccc(C)cc2)cc1 | > 1740 nM | > 10000 nM | 404 nM |
| Oc1ccc(-c2ccnc3cc(Cl)ccc23)cc1CNCCCn1ccnc1 | 167 nM | > 10000 nM | 403 nM |
| O=C(/C=C\c1ccccc1)Nc1ccc2[nH]c(-c3ccc(NC(=O)/C=C/c4ccccc4)cc3)nc2c1 | 254 nM | > 10000 nM | 425 nM |
| Cc1ccc(CN2CCN(Cc3cn(C(C)C)c4ccccc34)CC2CCO)o1 (configuration not stated) | > 12500 nM | > 100000 nM | 4210 nM |
| CCc1ccc2[nH]c(=O)c(CN(CCN(CC)CC)C(=S)NCCCN(C)C)cc2c1 | 2270 nM | 38200 nM | 1530 nM |
| CCOC(=O)c1cccc(NC(=O)CCn2nc(C)c3c(C)n(-c4ccccc4)nc3c2=O)c1 | 3060 nM | > 100000 nM | 4270 nM |

| SMILES | EC50 (Plasmodium falciparum [1]) | CC50 [2] | EC50 (Plasmodium falciparum [3]) |
| --- | --- | --- | --- |
| O=Cc1c(OCc2ccc(Cl)cc2Cl)ccc2ccccc12 | 719 nM | > 10000 nM | 426 nM |
| Clc1ccc(-c2c[n+](Cc3ccccc3Cl)c3n2CCC3)cc1Cl | 749 nM | > 30900 nM | 1310 nM |
| CCC(C)NC(=O)c1c[nH]c2ccc(S(=O)(=O)N3CCc4ccccc43)cc2c1=O (configuration not stated) | > 1250 nM | > 10000 nM | 424 nM |
| C=CCNC(=O)c1ccc2c(c1)N=CN(CCOc1ccccc1)C2 | 441 nM | > 10000 nM | 419 nM |
| OCCNc1nc(Nc2ccccc2O)nc2ccccc12 | 1860 nM | 58700 nM | 2470 nM |
| COc1cccc(C(=O)N(CCCC(C)Nc2cc(OC)cc3cccnc23)Cc2ccc(F)cc2)c1 (configuration not stated) | 666 nM | 3730 nM | 154 nM |
| CO[C@H]1O[C@@H]2COC(c3ccccc3)O[C@H]2[C@@H](O)[C@@H]1OCc1ccccc1 (some centres not stated) | 376 nM | > 13800 nM | 555 nM |
| O=C(N/C(=C/C=C\c1ccccc1)C(=O)N1CCOCC1)c1ccc(Br)cc1 | > 1300 nM | > 10000 nM | 401 nM |
| CCc1ccc(NC(=O)c2sc3nc(N)c(C#N)c(-c4ccc(OC)c(OC)c4)c3c2N)cc1 | 5810 nM | > 100000 nM | 3990 nM |
| CCCCCc1ccc(OCCCC[n+]2cccc(C)c2C)c(CCCCC)c1 | 215 nM | 3000 nM | 120 nM |
| CCN(CC)c1cc(-c2ccccn2)nc(-c2ccccn2)n1 | 578 nM | > 10000 nM | 418 nM |
| FC(F)(F)c1cccc(-c2cncc(N3CCN(c4ccccn4)CC3)n2)c1 | 5770 nM | 45700 nM | 1910 nM |
| Clc1ccc(-n2cc(-c3ccccc3)c3c(N4CCC(Cc5ccccc5)CC4)ncnc32)cc1 | > 10000 nM | > 100000 nM | > 3990 nM |
| O=C(/C=C/Nc1ccccc1NS(=O)(=O)c1ccc([N+](=O)[O-])cc1)c1ccccc1 | > 1250 nM | > 10000 nM | 419 nM |
| CCn1cc(C(=O)N2CCC(C(=O)c3nccs3)CC2)c(C)n1 | > 1250 nM | > 10000 nM | > 418 nM |
| O=C(c1ccc2c(c1)OCO2)N1CCOC(c2ccc(Cl)cc2)C1 (configuration not stated) | 1630 nM | > 100000 nM | 4110 nM |
| CCOc1ccc(C2C(=O)N(C3CCCCC3)CC(=O)N2Cc2ccc(F)cc2)cc1OC (configuration not stated) | 4560 nM | > 100000 nM | 4150 nM |
| Cc1ccc(-c2cc(-c3ccccc3)c(C#N)c(SCC(O)C[S+]([O-])Cc3ccccc3)n2)cc1 (configuration not stated) | 7170 nM | 39900 nM | 1650 nM |
| CCN(CC)CCCC(C)Nc1cc(/C=C/c2ccc([N+](=O)[O-])cc2)nc2cc(OC)ccc12 (configuration not stated) | 479 nM | > 10000 nM | 410 nM |
| Cc1ccc(Nc2nc(NCc3ccco3)c3ccccc3n2)cc1 | 126 nM | 5270 nM | 216 nM |
| COc1cccc(-c2cc(N=C(NCc3ccco3)SC)n[nH]2)c1 | > 11300 nM | 70400 nM | 2870 nM |
| Ic1ccc(NCc2cn3ccccc3n2)cc1 | 6370 nM | > 100000 nM | 4070 nM |
| O=c1cc(NC2CCN(CCCc3ccccc3)CC2)c2cc(Cl)ccc2o1 | 408 nM | 20500 nM | 863 nM |

| SMILES | EC50 (Plasmodium falciparum [1]) | CC50 [2] | EC50 (Plasmodium falciparum [3]) |
| --- | --- | --- | --- |
| CCN(CC)CCCN(Cc1cc2cc3c(cc2[nH]c1=O)OCCO3)C(=S)Nc1cccc(Cl)c1 | 1160 nM | 21200 nM | 890 nM |
| CCCCCCCCOC(=O)NCCCCCCNC(=O)OCCCCCCCC | > 12500 nM | > 100000 nM | 4190 nM |
| Cc1ccc(O)c(Nc2c3c(c(C#N)c4nc5ccccc5n24)CCC3)c1 | 231 nM | > 10000 nM | 424 nM |
| O=C1c2cccc3c(C4=NN(c5ccccc5)C(c5ccc(Cl)cc5)C4)ccc(c23)C(=O)N1c1ccccc1 (configuration not stated) | > 1250 nM | > 10000 nM | 407 nM |
| COc1ccc2nc(C)cc(Nc3ccc(Oc4ccc(Cl)c5ccccc45)c(Cl)c3)c2c1 | 365 nM | 19800 nM | 826 nM |
| CC1(C)Oc2ccc3ccc(=O)oc3c2CC1=NNC(N)=S | > 12500 nM | > 100000 nM | 4190 nM |
| O=C(CCl)Nc1ccc2c(c1)OCO2 | 1900 nM | 20300 nM | 831 nM |
| N#Cc1sccc1NS(=O)(=O)c1ccc(Cl)cc1 | > 1250 nM | > 10000 nM | > 413 nM |
| CCOC(=O)c1sc(Nc2c(Cl)cc(S(N)(=O)=O)cc2Cl)nc1C | > 1250 nM | > 10000 nM | 411 nM |
| C=C(C)[C@@H]1CC=C(CN2C[C@H](NC(=O)c3ccc(OC)cc3OC)C[C@H]2C(=O)OC)CC1 | 815 nM | > 10000 nM | 409 nM |
| CC1CC2(C)Oc3ccccc3CC2C(C)C1CNCCCN(C)C (configuration not stated) | 241 nM | 4790 nM | 192 nM |
| CCOc1ccc(/C=C(/C#N)c2nc3ccccc3[nH]2)cc1OC | 1500 nM | > 10000 nM | 405 nM |
| O=S(=O)(c1ccc(Br)s1)N1CCN(c2ccccc2)CC1 | 411 nM | > 10000 nM | 400 nM |
| CN(CCCNc1ccnc2cc(Cl)ccc12)C(=O)c1cccc(F)c1 | 739 nM | > 11500 nM | 490 nM |
| O=C1C(Nc2ccccc2)=C(n2nnc3ccccc32)C(=O)c2ccccc21 | 2020 nM | 6300 nM | 259 nM |
| OCCCNc1cc(-c2ccccn2)nc(-c2ccccn2)n1 | > 908 nM | > 10000 nM | 401 nM |
| CC[n+]1c(/C=C/C=C2\N(C)c3ccccc3C2(C)C)n(CCCOC(C)=O)c2ccccc21 | 322 nM | > 10000 nM | 416 nM |
| CCCCCCN(C(=O)COc1ccccc1)C(CC)c1nc2ccccc2c(=O)n1-c1cccc(Cl)c1 (configuration not stated) | 2740 nM | > 100000 nM | 4010 nM |
| CCc1ccc2[nH]c(=O)c(CN(CCO)C(=S)Nc3ccccc3CC)cc2c1 | 2620 nM | 48000 nM | 1910 nM |
| Cc1ccc(-c2cn3c([n+]2-c2ccc(C)cc2)CCCCC3)cc1 | 999 nM | 10900 nM | 459 nM |
| CCN(CC)CCCNC(=S)N(CCc1cccc(C)c1)Cc1cc2cc(OC)c(OC)cc2[nH]c1=O | 2430 nM | 18600 nM | 747 nM |
| COC(=O)c1sc2nc(CN(C)CC(C)C)ccc2c1NC(=O)c1ccc(C)s1 | > 12500 nM | > 100000 nM | 4010 nM |
| O=C(c1ccccc1)N1CCc2nc(Cc3ccc(F)cc3Cl)sc2C1 | 4400 nM | > 57400 nM | 2360 nM |
